Assay: method code SF-AS, from DOI: 10.1021/jf00106a008
Conditions: pH 7.3

Compound	logD
CCCCCCOn1c(=O)[nH]c(C)c(Br)c1=O	2.48
Cc1[nH]c(=O)n(OCCCl)c(=O)c1Br	0.3
CCCOn1c(=O)[nH]c(C)c(SC#N)c1=O	-0.22
CCCCCCCCCCOn1c(=O)[nH]c(C)c(Br)c1=O	4.65
CCCOn1c(=O)[nH]c(C)c(Br)c1=O	0.76
CCC(C)On1c(=O)[nH]c(C)c(Br)c1=O (stereo not drawn)	1.11
C#CCOn1c(=O)[nH]c(C)c(Br)c1=O	-0.1
CCCCCOn1c(=O)[nH]c(C)c(Br)c1=O	1.69
Cc1[nH]c(=O)n(OCC(C)C)c(=O)c1Br	1.23
COn1c(=O)[nH]c(C)c(Br)c1=O	-0.3
CCCOn1c(=O)cc(C)[nH]c1=O	0.3
CCCCOn1c(=O)[nH]c(C)c(Br)c1=O	1.26
CCCCCCCCOn1c(=O)[nH]c(C)c(Br)c1=O	3.38
C=CCOn1c(=O)[nH]c(C)c(Br)c1=O	0.32
CCOn1c(=O)[nH]c(C)c(Br)c1=O	0.11
Cc1[nH]c(=O)n(OC(C)C)c(=O)c1Br	0.45
CCCOn1c(=O)[nH]c(CCC)c(Br)c1=O	1.73
CCCOn1c(=O)c(Br)c(C)n(C)c1=O	0.72

From the SangsterLogP compilation
